The source of these data is paper PMC12587574, “Mass balance, pharmacokinetics, metabolism, and excretion of radiolabeled acoziborole, a potential novel treatment for human African trypanosomiasis, following single microtracer oral dose to humans” (Antimicrobial Agents and Chemotherapy, 2025).

One data set concerns the target T1, CYP2C8 (Homo sapiens, UniProt P10632).
T1 construct: purchased
T1 sequence (P10632 1-490): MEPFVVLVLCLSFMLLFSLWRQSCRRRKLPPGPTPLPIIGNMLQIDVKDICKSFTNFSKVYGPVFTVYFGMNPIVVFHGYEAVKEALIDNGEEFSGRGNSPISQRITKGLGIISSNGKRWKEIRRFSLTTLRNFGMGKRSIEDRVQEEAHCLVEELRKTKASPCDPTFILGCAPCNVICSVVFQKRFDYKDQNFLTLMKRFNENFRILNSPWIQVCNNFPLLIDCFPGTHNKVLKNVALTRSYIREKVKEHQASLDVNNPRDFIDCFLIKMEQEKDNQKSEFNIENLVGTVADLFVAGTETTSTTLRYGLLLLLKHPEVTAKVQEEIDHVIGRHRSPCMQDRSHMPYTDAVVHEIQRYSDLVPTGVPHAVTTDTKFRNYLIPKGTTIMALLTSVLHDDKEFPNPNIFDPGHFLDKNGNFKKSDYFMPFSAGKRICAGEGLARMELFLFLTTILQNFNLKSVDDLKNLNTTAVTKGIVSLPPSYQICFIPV
In words: Incubation with CYP450 recombinant enzymes (Bactosomes) and NADPH. The data set is classed as in vitro ADME. Conditions: 1 µM.

The nature of data set [1]: Plasma pharmacokinetics of acoziborole and SCYX-3109 by LC-MS/MS, phase I mass balance study. The data set is classed as in vivo, human. The protocol:
This single-center, open-label, single group, non-randomized, single oral dose study was performed at Quotient Sciences Ltd (Ruddington, Nottingham, UK). Clinical trial authorization was obtained from the Medicines and Healthcare Products Regulatory Agency (UK). Approval for administration of [^14C]-acoziborole was obtained from an expert committee sponsored by the Department of Health and Social Care in the United Kingdom (Administration of Radioactive Substances Advisory Committee [ARSAC]), and from the ARSAC-accredited Quotient Sciences’ nuclear medicine practitioner. This study was approved by a local research ethics committee in the United Kingdom and was conducted in compliance with the Declaration of Helsinki and the International Conference on Harmonisation E6 Guideline for Good Clinical Practice. The study was registered in clinicaltrials.gov (NCT04270981) and in EudraCT (reference 2019-004059-35). Written informed consent was obtained from all participants before undertaking any study-related procedures.
Participants were admitted in the evening of the day before dosing (Day −1) and were dosed in the morning of Day 1, following an overnight fast from food and drink of a minimum of 9 h. They remained fasted until approximately 4 h post-dose, at which time lunch was provided. Participants remained resident in the clinic until up to 240 h after dosing (up to Day 11). […] However, due to the COVID-19 pandemic, instead of returning for the outpatient visits, participants were requested to perform home collection of feces for a 48-h period (i.e., Days 31–33, Days 59–61, Days 89–91, and Days 119–121). Collected samples were couriered to the clinical unit at the end of each collection period. A follow-up call took place 5–10 days after the final outpatient visit to ensure the well-being of participants.
Venous blood samples were collected via an indwelling cannula or by venepuncture. A 12 mL sample was taken into heparinized glass tube and chilled on ice immediately before IP administration and 3 mL samples were taken at 1, 4, 9, 12, 24, 48, 72, 96, 120, 144, 168, and 240 h and on Days 15, 31, 59, 89, and 119 after IP administration. The first 0.5 mL of blood withdrawn via cannula was discarded. One aliquot of heparinized whole blood (1 mL) per time point was stored at or below −20°C for total radioactivity analysis. The remaining blood was centrifuged, and the harvested plasma was stored at approximately −20°C for bioanalysis or transferred (exactly 1 mL) into polypropylene tubes pre-filled with 5 µL formic acid. One plasma sample (0.5 mL) was used for metabolite profiling while another (0.5 mL) was used for parent drug and SCYX-3109 metabolite analysis. The remaining plasma was used for total radioactivity analysis.
SGS Belgium (Wavre, Belgium) performed the analysis to determine acoziborole and SCYX-3109 concentrations, using validated bioanalytical assays with liquid chromatography with tandem mass spectrometry (LC-MS/MS) with a Supelco Ascentis Express C8, 2.7 µm, 50 × 2.1 mm I.D. separation column. In plasma, the lower limit of quantification (LLOQ) was 25 ng/mL for acoziborole and 10 ng/mL for SCYX-3109. In urine, the LLOQ was 10 ng/mL for both acoziborole and SCYX-3109.
PK parameters were calculated based on actual sampling times using standard non-compartmental analysis and WinNonlin version 8.1 software (Certara, Princeton, NJ, USA).
The SCYX-3109 to parent ratios were calculated based on Cmax and AUC0–∞.

Structures are written as SMILES. Read-outs that look alike come from different tables or passages of the source.

As to `CC1(C)OB(O)c2cc(NC(=O)c3ccc(F)cc3C(F)(F)F)ccc21` [acoziborole], on CYP2C8, the “metabolism by recombinant CYP2C8” value is listed as “metabolized by”. For the same compound, the “mean t1/2 ratio of acoziborole to total radioactivity in blood” value in data set [1] (960 mg single oral dose) is reported as 1.1. Further, the “mean t1/2 ratio of acoziborole to total radioactivity in plasma” value in data set [1] (960 mg single oral dose) was 1.0. In addition, in data set [1] (960 mg single oral dose), the “share of the radioactivity in plasma, based on AUC0–240h and AUC0–∞ ratios of acoziborole to total radioactivity” value is ~100%. This compound also gave a t1/2 in plasma in data set [1] (960 mg single oral dose of acoziborole, N = 6, mean ± SD) of 11.34 ± 1.51 days. Also, in data set [1] (960 mg single oral dose, plasma, N = 6, mean ± SD), the “CL/F (apparent total body clearance)” value is given as 0.2 ± 0.0 L/h. In addition, the “time first detected in plasma after dosing” value in data set [1] (after 960 mg single oral [14C]-acoziborole) was 1 h. The AUC(0-t) stood at 2520 µg·h/mL in data set [1] (human, plasma, po, 960 mg, 960 mg single oral dose of acoziborole, N = 6, mean ± SD, read-out: AUC0–240h in plasma) and 5920 µg·h/mL in data set [1] (human, plasma, po, 960 mg, 960 mg single oral dose of acoziborole, N = 6, mean ± SD, read-out: AUC0–t in plasma). The Tmax (as a rule, the time from dosing to the highest level) is 52 ± 9.8 h in data set [1] (human, plasma, po, 960 mg, 960 mg single oral dose of acoziborole, N = 6, mean ± SD, read-out: tmax in plasma); 48 to 72 h in data set [1] (male, human, plasma, po, 960 mg, 960 mg single oral dose, N = 6, read-out: individual tmax values in plasma); 48 h in data set [1] (male, human, plasma, po, 960 mg, 960 mg single oral dose, N = 6, read-out: median tmax in plasma). In addition, the AUC(0-inf) in data set [1] (human, plasma, 960 mg single oral dose of acoziborole, N = 6, mean ± SD, read-out: AUC0–∞ in plasma) is 6450 µg·h/mL. Moreover, the half-life in data set [1] (male, human, plasma, po, 960 mg, 960 mg single oral dose of acoziborole, N = 6, mean ± SD, read-out: t1/2 in plasma (converted)) is 11.3 days. The highest level in data set [1] (male, human, plasma, 960 mg single oral dose of acoziborole, healthy males, N = 6, mean ± SD) (Cmax) was 14200 ± 1980 ng/mL. The Vd/F in data set [1] (male, human, 960 mg single oral dose, plasma, N = 6, mean ± SD, read-out: Vz/F (apparent volume of distribution during the terminal phase)) was 59.1 ± 7.3 L.
